For orientation: Ki means a measure of affinity in units of concentration, obtained from inhibition or displacement.

This passage reports Ki results from patent US10479784B2, “Substituted pyrazin-2-amines as inhibitors of ATR kinase” (Vertex Pharmaceuticals Incorporated, priority 2008, dated 2019).

A value given as a limit tells only on which side of the number the result lay.

full-length ATR, sequence (Q13535 whole entry): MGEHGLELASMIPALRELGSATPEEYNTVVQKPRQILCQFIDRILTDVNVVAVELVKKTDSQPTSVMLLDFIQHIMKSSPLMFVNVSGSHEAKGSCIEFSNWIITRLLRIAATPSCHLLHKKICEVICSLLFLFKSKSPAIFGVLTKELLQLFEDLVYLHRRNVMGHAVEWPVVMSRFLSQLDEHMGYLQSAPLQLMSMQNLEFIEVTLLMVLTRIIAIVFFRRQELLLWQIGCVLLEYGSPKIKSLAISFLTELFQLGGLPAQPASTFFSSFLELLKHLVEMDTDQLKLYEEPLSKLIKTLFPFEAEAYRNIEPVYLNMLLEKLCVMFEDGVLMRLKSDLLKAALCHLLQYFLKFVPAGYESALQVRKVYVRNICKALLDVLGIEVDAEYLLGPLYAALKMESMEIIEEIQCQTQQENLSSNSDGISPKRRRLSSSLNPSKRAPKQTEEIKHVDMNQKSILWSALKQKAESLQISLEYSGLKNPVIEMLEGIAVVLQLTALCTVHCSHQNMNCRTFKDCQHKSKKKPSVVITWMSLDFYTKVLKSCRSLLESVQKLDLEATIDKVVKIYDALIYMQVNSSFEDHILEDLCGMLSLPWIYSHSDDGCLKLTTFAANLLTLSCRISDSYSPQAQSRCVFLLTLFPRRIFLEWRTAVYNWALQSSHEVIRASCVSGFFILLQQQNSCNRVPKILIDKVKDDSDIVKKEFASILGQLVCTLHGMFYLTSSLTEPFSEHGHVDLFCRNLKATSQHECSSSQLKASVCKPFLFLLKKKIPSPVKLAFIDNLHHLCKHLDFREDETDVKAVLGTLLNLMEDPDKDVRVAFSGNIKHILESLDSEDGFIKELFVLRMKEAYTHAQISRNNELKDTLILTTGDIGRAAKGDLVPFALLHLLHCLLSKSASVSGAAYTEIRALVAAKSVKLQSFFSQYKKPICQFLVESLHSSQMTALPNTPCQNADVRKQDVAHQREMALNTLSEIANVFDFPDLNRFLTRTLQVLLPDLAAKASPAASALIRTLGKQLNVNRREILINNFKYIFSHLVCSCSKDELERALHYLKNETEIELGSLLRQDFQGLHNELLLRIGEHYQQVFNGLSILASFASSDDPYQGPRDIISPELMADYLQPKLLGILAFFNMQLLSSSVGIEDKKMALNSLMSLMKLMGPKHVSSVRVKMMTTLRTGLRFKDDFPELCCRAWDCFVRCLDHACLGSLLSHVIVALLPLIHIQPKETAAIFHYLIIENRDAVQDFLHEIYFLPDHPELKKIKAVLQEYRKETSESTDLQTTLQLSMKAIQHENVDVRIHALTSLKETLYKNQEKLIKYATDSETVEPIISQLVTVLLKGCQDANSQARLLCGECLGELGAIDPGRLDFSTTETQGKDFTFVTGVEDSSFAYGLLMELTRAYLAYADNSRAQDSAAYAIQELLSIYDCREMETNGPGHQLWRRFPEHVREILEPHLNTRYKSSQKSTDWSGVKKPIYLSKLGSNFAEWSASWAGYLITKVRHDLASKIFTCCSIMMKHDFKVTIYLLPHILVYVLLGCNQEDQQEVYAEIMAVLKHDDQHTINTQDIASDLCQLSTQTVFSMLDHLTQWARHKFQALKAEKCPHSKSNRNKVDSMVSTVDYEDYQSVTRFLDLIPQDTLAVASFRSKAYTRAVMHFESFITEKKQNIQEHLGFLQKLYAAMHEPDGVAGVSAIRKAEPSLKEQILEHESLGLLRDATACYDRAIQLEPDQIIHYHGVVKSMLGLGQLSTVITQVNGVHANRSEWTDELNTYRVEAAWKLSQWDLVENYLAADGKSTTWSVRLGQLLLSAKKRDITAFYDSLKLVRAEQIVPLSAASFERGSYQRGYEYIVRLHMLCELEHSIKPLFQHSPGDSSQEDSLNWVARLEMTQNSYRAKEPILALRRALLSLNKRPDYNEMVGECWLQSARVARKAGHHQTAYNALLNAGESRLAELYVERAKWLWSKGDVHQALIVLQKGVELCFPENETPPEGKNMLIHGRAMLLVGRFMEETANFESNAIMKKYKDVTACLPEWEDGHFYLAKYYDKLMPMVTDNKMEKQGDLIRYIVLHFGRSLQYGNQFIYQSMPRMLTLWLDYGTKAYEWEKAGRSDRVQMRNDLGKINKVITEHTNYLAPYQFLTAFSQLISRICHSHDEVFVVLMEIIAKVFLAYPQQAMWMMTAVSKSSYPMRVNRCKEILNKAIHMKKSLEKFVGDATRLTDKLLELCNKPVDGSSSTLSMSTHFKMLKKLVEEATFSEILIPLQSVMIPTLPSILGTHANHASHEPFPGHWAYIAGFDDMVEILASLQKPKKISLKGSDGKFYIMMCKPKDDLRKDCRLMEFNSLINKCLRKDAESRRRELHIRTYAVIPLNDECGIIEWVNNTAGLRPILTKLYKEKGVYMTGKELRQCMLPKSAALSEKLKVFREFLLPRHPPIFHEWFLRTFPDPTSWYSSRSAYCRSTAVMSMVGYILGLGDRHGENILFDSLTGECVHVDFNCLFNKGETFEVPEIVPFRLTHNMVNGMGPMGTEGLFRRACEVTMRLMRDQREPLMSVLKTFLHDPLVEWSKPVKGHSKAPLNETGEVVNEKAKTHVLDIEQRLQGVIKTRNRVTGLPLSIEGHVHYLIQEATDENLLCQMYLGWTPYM

In the assay the target is full-length ATR (Homo sapiens (Human), UniProt Q13535). Kind of assay: ATR Inhibition Assay (radioactive-phosphate incorporation). To be noted: read-out: ATR Ki. Type of assay: biochemical. In outline:
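Full-length human ATR (5 nM) was assayed at 25 °C in 50 mM Tris/HCl pH 7.5, 10 mM MgCl2, 1 mM DTT, with 10 μM [γ-33P]ATP and 800 μM peptide, after 10-min compound preincubation. Reactions were stopped after 24 h, captured on phosphocellulose and counted; Ki(app) came from non-linear regression of initial rates.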
For `CC(C)S(=O)(=O)c1ccc(-c2cnc(N)c(-c3nnc(C(=O)O)o3)n2)cc1` [IA-128, 5-[3-amino-6-(4-isopropylsulfonylphenyl)pyrazin-2-yl]-1,3,4-oxadiazole-2-carboxylic acid], the Ki was at most 10 nM.

Take `Nc1ncc(-c2cncnc2)nc1C(=O)Nc1ccccc1` [Compound I-40, 3-amino-N-phenyl-6-(pyrimidin-5-yl)pyrazine-2-carboxamide]: the Ki fell in the range of 100 to 5000 nM. Consider `COc1ccc(OC)c(NC(=O)c2nc(-c3cccnc3)cnc2N)c1` [Compound I-107, 3-amino-N-(2,5-dimethoxyphenyl)-6-(pyridin-3-yl)pyrazine-2-carboxamide], for which the Ki lay in the range of 10 to 100 nM.

With `COCCN(C)C(=O)c1ccc(-c2cnc(N)c(-c3nnc(-c4ccccc4)o3)n2)cc1` [IA-14], the Ki is at most 10 nM. `CN(C)C(=O)c1ccc(-c2cnc(N)c(-c3nnc(-c4cccs4)o3)n2)cc1` [IA-52]: the Ki was at most 10 nM.

On to `COc1ccccc1NC(=O)c1nc(-c2cccs2)cnc1N` [Compound I-35, 3-amino-N-(2-methoxyphenyl)-6-(thiophen-2-yl)pyrazine-2-carboxamide], for which the Ki lay in the range of 10 to 100 nM.

Take `CN(C)C(=O)c1ccc(-c2cnc(N)c(-c3nnc(-c4ccccc4)o3)n2)c(-c2cnco2)c1` [IA-161, 4-[5-amino-6-(5-phenyl-1,3,4-oxadiazol-2-yl)pyrazin-2-yl]-N,N-dimethyl-3-oxazol-5-yl-benzamide]: the Ki lay within 10 to 100 nM.

Regarding `CC(C)S(=O)(=O)c1ccc(-c2cnc(N)c(-c3nnc(-c4ccc(CNCCN(C)C)cc4)o3)n2)cc1` [IA-225, N-[[4-[5-[3-amino-6-(4-isopropylsulfonylphenyl)pyrazin-2-yl]-1,3,4-oxadiazol-2-yl]phenyl]methyl]-N′,N′-dimethyl-ethane-1,2-diamine], the Ki lay in the range of 10 to 100 nM.

As for `Nc1ncc(-c2ccccc2CO)nc1C(=O)Nc1ccccc1` [Compound I-19, 3-amino-6-(2-(hydroxymethyl)phenyl)-N-phenylpyrazine-2-carboxamide], the Ki lay in the range of 10 to 100 nM. Then `Nc1ncc(-c2cccc(N3CCOCC3)c2)nc1C(=O)Nc1ccccc1` [Compound I-12, 3-amino-6-(3-morpholinophenyl)-N-phenylpyrazine-2-carboxamide], with 100 to 5000 nM. In the case of `Nc1ncc(-c2cccnc2)nc1C(=O)Nc1ccc2[nH]ccc2c1` [Compound V-17] it was 10 to 100 nM; in that of `CC(C)S(=O)(=O)c1ccc(-c2cnc(N)c(-c3nnc(-c4ccc([C@H](C)N)cc4)o3)n2)cc1` [IA-228, 3-[5-[4-[(1S)-1-aminoethyl]phenyl]-1,3,4-oxadiazol-2-yl]-5-(4-isopropylsulfonylphenyl)pyrazin-2-amine], at most 10 nM.

For `CN(C)C(=O)c1ccccc1-c1cnc(N)c(-c2nnc(-c3ccccc3)o2)n1` [IA-244, 2-[5-amino-6-(5-phenyl-1,3,4-oxadiazol-2-yl)pyrazin-2-yl]-N,N-dimethyl-benzamide], the Ki lay in the range of 100 to 5000 nM. In the case of `CC(C)S(=O)(=O)c1ccc(-c2cnc(N)c(-c3nnc(-c4ccc(C5CNC5)cc4)o3)n2)cc1` [IA-285, 3-[5-[4-(azetidin-3-yl)phenyl]-1,3,4-oxadiazol-2-yl]-5-(4-isopropylsulfonylphenyl)pyrazin-2-amine] it was at most 10 nM; in that of `CNCc1ccc(-c2nnc(-c3nc(-c4ccc(S(=O)(=O)C(C)C)cc4C#N)cnc3N)o2)cc1` [IA-331, 2-[5-amino-6-[5-[4-(methylaminomethyl)phenyl]-1,3,4-oxadiazol-2-yl]pyrazin-2-yl]-5-isopropylsulfonyl-benzonitrile], at most 10 nM; in that of `Cc1ccc(-c2nnc(-c3nc(-c4ccc(C(=O)N(C)C)cc4)cnc3N)o2)cc1` [IA-263, 4-[5-amino-6-[5-(p-tolyl)-1,3,4-oxadiazol-2-yl]pyrazin-2-yl]-N,N-dimethyl-benzamide], 10 to 100 nM. For `N#Cc1cccn1-c1cnc(N)c(-c2nnc(-c3ccccc3)o2)n1` [IA-264, 1-[5-amino-6-(5-phenyl-1,3,4-oxadiazol-2-yl)pyrazin-2-yl]pyrrole-2-carbonitrile], the Ki was at most 10 nM. On to `Nc1ncc(-c2ccc(C(=O)N3CCCN(C=O)CC3)cc2)nc1-c1nnc(-c2ccccc2)o1` [IA-29], for which the Ki is at most 10 nM.

As to `CS(=O)(=O)c1ccccc1-c1cnc(N)c(-c2nnc(-c3ccccc3)o2)n1` [IA-190, 5-(2-methylsulfonylphenyl)-3-(5-phenyl-1,3,4-oxadiazol-2-yl)pyrazin-2-amine], the Ki was 100 to 5000 nM. Then `CN(C)C(=O)c1ccc(-c2cnc(N)c(-c3nnc(-c4ccccn4)o3)n2)cc1` [IA-51], with 10 to 100 nM; and `CN(C)C(=O)c1ccc(-c2cnc(N)c(-c3nnc(-c4ccc(CNC(=O)OC(C)(C)C)cc4)o3)n2)cc1` [IA-162, tert-butyl N-[[4-[5-[3-amino-6-[4-(dimethylcarbamoyl)phenyl]pyrazin-2-yl]-1,3,4-oxadiazol-2-yl]phenyl]methyl]carbamate], with 10 to 100 nM. In the case of `Nc1ncc(-c2ccccc2C(F)(F)F)nc1-c1nnc(-c2ccccc2)o1` [IA-174, 3-(5-phenyl-1,3,4-oxadiazol-2-yl)-5-[2(-trifluoromethyl)phenyl]pyrazin-2-amine] it was 100 to 5000 nM. Turning to `Nc1ncc(-c2ccc(C(=O)N3CCC3)cc2)nc1C(=O)Nc1ccccc1` [Compound I-72, 3-amino-6-(4-(azetidine-1-carbonyl)phenyl)-N-phenylpyrazine-2-carboxamide], the Ki was 10 to 100 nM. As for `CN(C)C(=O)c1ccc(-c2cnc(N)c(-c3nnc(-c4ccc(O)cc4)o3)n2)cc1` [IA-87, 4-[5-amino-6-[5-(4-hydroxyphenyl)-1,3,4-oxadiazol-2-yl]pyrazin-2-yl]-N,N-dimethyl-benzamide], the Ki is at most 10 nM.

Turning to `COc1ccccc1-c1cnc(N)c(-c2nnc(-c3ccccc3)o2)n1` [IA-65], the Ki lay within 100 to 5000 nM.

Consider `Nc1ncc(-c2ccc(N3CCOCC3)nc2)nc1-c1nc2ccccc2[nH]1` [Compound I-135, 3-(1H-benzo[d]imidazol-2-yl)-5-(6-morpholinopyridin-3-yl)pyrazin-2-amine], for which the Ki lay within 100 to 5000 nM. Then `Nc1ncc(-c2cccc(C(=O)NCCN3CCCC3)c2)nc1C(=O)Nc1ccccc1` [Compound I-54, 3-amino-N-phenyl-6-(3-(2-(pyrrolidin-1-yl)ethylcarbamoyl)phenyl)pyrazine-2-carboxamide], with 100 to 5000 nM.

In the case of `CN(C)C(=O)c1ccc(-c2cnc(N)c(-c3nnc(NC4CCCCC4)o3)n2)cc1` [IA-163, 4-[5-amino-6-[5-(cyclohexylamino)-1,3,4-oxadiazol-2-yl]pyrazin-2-yl]-N,N-dimethyl-benzamide], the Ki is 100 to 5000 nM. With `Nc1ncc(-c2cccc(C(=O)N3CCC(CO)CC3)c2)nc1C(=O)Nc1ccccc1` [Compound I-50, 3-amino-6-(3-(4-(hydroxymethyl)piperidine-1-carbonyl)phenyl)-N-phenylpyrazine-2-carboxamide], the Ki was 100 to 5000 nM.

Turning to `Nc1ncc(-c2cccc(C(=O)NCCN3CCCCC3)c2)nc1C(=O)Nc1ccccc1` [Compound I-61, 3-amino-N-phenyl-6-(3-(2-(piperidin-1-yl)ethylcarbamoyl)phenyl) pyrazine-2-carboxamide], the Ki was in the range of 100 to 5000 nM.

Take `CC(C)S(=O)(=O)c1ccc(-c2cnc(N)c(-c3nnc(-c4ccc([C@@H](C)N)cc4)o3)n2)cc1` [IA-124, 3-[5-[4-[(1R)-1-aminoethyl]phenyl]-1,3,4-oxadiazol-2-yl]-5-(4-isopropylsulfonylphenyl)pyrazin-2-amine]: the Ki was at most 10 nM. Then `CCSc1ccccc1-c1cnc(N)c(-c2nnc(-c3ccccc3)o2)n1` [IA-184, 5-(2-ethylsulfanylphenyl)-3-(5-phenyl-1,3,4-oxadiazol-2-yl)pyrazin-2-amine], with 10 to 100 nM; and `Nc1ncc(-c2cccnc2)nc1C(=O)Nc1ccncn1` [Compound I-89, 3-amino-6-(pyridin-3-yl)-N-(pyrimidin-4-yl)pyrazine-2-carboxamide], with 100 to 5000 nM; and `NC(=O)c1cccc(NC(=O)c2nc(-c3cccnc3)cnc2N)c1` [Compound I-88, 3-amino-N-(3-carbamoylphenyl)-6-(pyridin-3-yl)pyrazine-2-carboxamide], with 100 to 5000 nM.

Consider `Nc1ncc(-c2cccnc2)nc1-c1nc2ccccc2[nH]1` [Compound I-121, 3-(1H-benzo[d]imidazol-2-yl)-5-(pyridin-3-yl)pyrazin-2-amine], for which the Ki was 10 to 100 nM. Then `N#Cc1cccc(-c2cnc(N)c(C(=O)Nc3ccccc3)n2)c1` [Compound I-10, 3-amino-6-(3-cyanophenyl)-N-phenylpyrazine-2-carboxamide], with 100 to 5000 nM; and `Nc1ncc(-c2ccc(C(=O)N3CCNC(C(F)(F)F)C3)cc2)nc1-c1nnc(-c2ccccc2)o1` (centres unmarked) [IA-16], with at most 10 nM; and `CC(C)S(=O)(=O)c1ccc(-c2cnc(N)c(-c3nnc(N)o3)n2)cc1` [IA-270, 5-[3-amino-6-(4-isopropylsulfonylphenyl)pyrazin-2-yl]-1,3,4-oxadiazol-2-amine], with at most 10 nM. In the case of `CN(C)C(=O)c1ccc(-c2cnc(N)c(-c3nnc(-c4cccc(O)c4)o3)n2)cc1` [IA-85, 4-[5-amino-6-[5-(3-hydroxyphenyl)-1,3,4-oxadiazol-2-yl]pyrazin-2-yl]-N,N-dimethyl-benzamide] it was 10 to 100 nM; in that of `CNCc1ccc(-c2nnc(-c3nc(-c4ccc(S(=O)(=O)C(C)C)cc4)cnc3N)o2)c(Cl)c1` [IA-306, 3-[5-[2-chloro-4-(methylaminomethyl)phenyl]-1,3,4-oxadiazol-2-yl]-5-(4-isopropylsulfonylphenyl)pyrazin-2-amine], at most 10 nM; in that of `CN(C)C(=O)c1ccc(-c2cnc(N)c(-c3nnc(NCc4ccccc4)o3)n2)cc1` [IA-55, 4-(5-amino-6-(5-(benzylamino)-1,3,4-oxadiazol-2-yl)pyrazin-2-yl)-N,N-dimethylbenzamide], 100 to 5000 nM.
